Source: patent publication US20060014197A1, “In vivo screening methods for identifying inhibitors of RNA polymerases” (priority 2004, published 2006)

Experiments:
[1] = target: T1, resident RNAPII (Homo sapiens, UniProt P24928); experiment: Tet-ON GFP reporter assay in transfected eukaryotic cells, no amanitin-resistant RPB1 expressed; type: cell-based; conditions: human HeLa or 293 cells, amanitin added, doxycycline induction, 48 hours; FIG. 7B
T1 construct: endogenous in cells; host or cells: human HeLa or 293 cells

[2] = target: T2, amanitin-resistant RNAPII (human RPB1 N792D) (Homo sapiens, UniProt P24928, N792D); experiment: Tet-ON GFP reporter assay in transfected eukaryotic cells expressing amanitin-resistant RPB1; type: cell-based; conditions: human HeLa or 293 cells with plasmid-expressed amanitin-resistant RPB1, amanitin added, doxycycline induction, 48 hours; FIG. 7B
T2 construct: expressed in transfected cells; host or cells: human HeLa or 293 cells transfected with the RPB1 plasmid and pGFP

SMILES: CC[C@H](C)[C@@H]1NC(=O)CNC(=O)[C@@H]2Cc3c([nH]c4cc(O)ccc34)[S+]([O-])C[C@@H](NC(=O)CNC1=O)C(=O)N[C@@H](CC(N)=O)C(=O)N1C[C@H](O)C[C@H]1C(=O)N[C@@H]([C@@H](C)[C@@H](O)CO)C(=O)N2 (stereo partly drawn) [amanitin, alpha-amanitin]
- GFP fluorescent signal (flow cytometer) [1]: no fluorescent signal is observed
- GFP fluorescent signal (flow cytometer) [2]: results in fluorescent signal
